From ChEMBL document CHEMBL3885881, “DrugMatrix”

Species on record: Rattus norvegicus
Experiment: DrugMatrix - Regimen: Daily Repeat
Format: toxicity, organism-based, Sprague-Dawley
Parameters: regimen Daily Repeat, gender Male, age 6-8 weeks
Details: in vivo, po, 2 mg/kg, route oral GAVAGE, dose level Low, […]; for ABSOLUTE BASOPHIL / ABSOLUTE EOSINOPHIL / ABSOLUTE LYMPHOCYTE / ABSOLUTE MONOCYTE / ABSOLUTE SEGMENTED NEUTROPHIL / BASOPHIL / EOSINOPHIL / ERYTHROCYTE COUNT / HEMATOCRIT / HEMOGLOBIN / LEUKOCYTE COUNT / LYMPHOCYTE / MEAN CORPUSCULAR HEMOGLOBIN / MEAN CORPUSCULAR HEMOGLOBIN CONCENTRATION / MEAN CORPUSCULAR VOLUME / MONOCYTE / NEUTROPHIL / NUCLEATED RED BLOOD CELLS / PLATELET COUNT: tissue Blood; for ALANINE AMINOTRANSFERASE / ALBUMIN / ALKALINE PHOSPHATASE / ASPARTATE AMINOTRANSFERASE / BLOOD UREA NITROGEN / CARBON DIOXIDE / CHLORIDE / CHOLESTEROL / CREATINE PHOSPHOKINASE / CREATININE / GLUCOSE / LACTATE DEHYDROGENASE / LIPASE / PHOSPHORUS / POTASSIUM / SODIUM / TOTAL BILIRUBIN / TOTAL PROTEIN / URIC ACID: tissue Plasma

Cc1nnc2n1-c1ccc(Cl)cc1C(c1ccccc1)=NC2 [ALPRAZOLAM]
ABSOLUTE BASOPHIL (72 h, time 3 day): 0 CELLS/uL | ABSOLUTE EOSINOPHIL (72 h, time 3 day): 40.33 CELLS/uL | ABSOLUTE LYMPHOCYTE (72 h, time 3 day): 13483.67 CELLS/uL | ABSOLUTE MONOCYTE (72 h, time 3 day): 168.67 CELLS/uL | ABSOLUTE SEGMENTED NEUTROPHIL (72 h, time 3 day): 1074 CELLS/uL | BASOPHIL (72 h, time 3 day): 0% | EOSINOPHIL (72 h, time 3 day): 0.33% | ERYTHROCYTE COUNT (72 h, time 3 day): 5.44 x10E6/uL | HEMATOCRIT (72 h, time 3 day): 34.8% | HEMOGLOBIN (72 h, time 3 day): 13.4 G/DL | LEUKOCYTE COUNT (72 h, time 3 day): 14.77 x10E3/uL | LYMPHOCYTE (72 h, time 3 day): 91% | MEAN CORPUSCULAR HEMOGLOBIN (72 h, time 3 day): 24.7 pg | MEAN CORPUSCULAR HEMOGLOBIN CONCENTRATION (72 h, time 3 day): 38.5 G/DL | MEAN CORPUSCULAR VOLUME (72 h, time 3 day): 64.17 fL | MONOCYTE (72 h, time 3 day): 1.33% | NEUTROPHIL (72 h, time 3 day): 7.33% | NUCLEATED RED BLOOD CELLS (72 h, time 3 day): 0 /100WBC | PLATELET COUNT (72 h, time 3 day): 1211 x10E3/uL | ALANINE AMINOTRANSFERASE (72 h, time 3 day): 78.67 u/L | ALBUMIN (72 h, time 3 day): 4.13 G/DL | ALKALINE PHOSPHATASE (72 h, time 3 day): 386.33 u/L | ASPARTATE AMINOTRANSFERASE (72 h, time 3 day): 99 u/L | BLOOD UREA NITROGEN (72 h, time 3 day): 15 mg/dL | CARBON DIOXIDE (72 h, time 3 day): 27 mmol/L | CHLORIDE (72 h, time 3 day): 99 MEQ/L | CHOLESTEROL (72 h, time 3 day): 68.67 mg/dL | CREATINE PHOSPHOKINASE (72 h, time 3 day): 276 u/L | CREATININE (72 h, time 3 day): 0.2 mg/dL | GLUCOSE (72 h, time 3 day): 160.33 mg/dL | LACTATE DEHYDROGENASE (72 h, time 3 day): 401.67 u/L | LIPASE (72 h, time 3 day): 10.33 u/L | PHOSPHORUS (72 h, time 3 day): 13.67 mg/dL | POTASSIUM (72 h, time 3 day): 7.37 MEQ/L | SODIUM (72 h, time 3 day): 142.63 MEQ/L | TOTAL BILIRUBIN (72 h, time 3 day): 0.23 mg/dL | TOTAL PROTEIN (72 h, time 3 day): 5.63 G/DL | URIC ACID (72 h, time 3 day): 1.7 mg/dL | ABSOLUTE BASOPHIL (120 h, time 5 day): 0 CELLS/uL | ABSOLUTE EOSINOPHIL (120 h, time 5 day): 0 CELLS/uL | ABSOLUTE LYMPHOCYTE (120 h, time 5 day): 13775.33 CELLS/uL | ABSOLUTE MONOCYTE (120 h, time 5 day): 53.67 CELLS/uL | ABSOLUTE SEGMENTED NEUTROPHIL (120 h, time 5 day): 1637.67 CELLS/uL | BASOPHIL (120 h, time 5 day): 0% | EOSINOPHIL (120 h, time 5 day): 0% | ERYTHROCYTE COUNT (120 h, time 5 day): 5.79 x10E6/uL | HEMATOCRIT (120 h, time 5 day): 35.1% | HEMOGLOBIN (120 h, time 5 day): 13.93 G/DL | LEUKOCYTE COUNT (120 h, time 5 day): 15.47 x10E3/uL | LYMPHOCYTE (120 h, time 5 day): 89% | MEAN CORPUSCULAR HEMOGLOBIN (120 h, time 5 day): 24.07 pg | MEAN CORPUSCULAR HEMOGLOBIN CONCENTRATION (120 h, time 5 day): 39.7 G/DL | MEAN CORPUSCULAR VOLUME (120 h, time 5 day): 60.57 fL | MONOCYTE (120 h, time 5 day): 0.33% | NEUTROPHIL (120 h, time 5 day): 10.67% | NUCLEATED RED BLOOD CELLS (120 h, time 5 day): 0 /100WBC | PLATELET COUNT (120 h, time 5 day): 1214.33 x10E3/uL | ALANINE AMINOTRANSFERASE (120 h, time 5 day): 67 u/L | ALBUMIN (120 h, time 5 day): 4 G/DL | ALKALINE PHOSPHATASE (120 h, time 5 day): 343.67 u/L | ASPARTATE AMINOTRANSFERASE (120 h, time 5 day): 109.67 u/L | BLOOD UREA NITROGEN (120 h, time 5 day): 15 mg/dL | CARBON DIOXIDE (120 h, time 5 day): 27 mmol/L | CHLORIDE (120 h, time 5 day): 101 MEQ/L | CHOLESTEROL (120 h, time 5 day): 81.67 mg/dL | CREATINE PHOSPHOKINASE (120 h, time 5 day): 429 u/L | CREATININE (120 h, time 5 day): 0.19 mg/dL | GLUCOSE (120 h, time 5 day): 142.33 mg/dL | LACTATE DEHYDROGENASE (120 h, time 5 day): 632 u/L | LIPASE (120 h, time 5 day): 10.67 u/L | PHOSPHORUS (120 h, time 5 day): 11.1 mg/dL | POTASSIUM (120 h, time 5 day): 5.98 MEQ/L | SODIUM (120 h, time 5 day): 144.97 MEQ/L | TOTAL BILIRUBIN (120 h, time 5 day): 0.13 mg/dL | TOTAL PROTEIN (120 h, time 5 day): 5.63 G/DL | URIC ACID (120 h, time 5 day): 1.63 mg/dL
